The values below come from ChEMBL document CHEMBL1201862, “PubChem BioAssay data set” (2004).

The source made the active and inactive calls. For most assays here, no stated cut-off is given here; in the data, actives have a measured EC50 and inactives only a lower limit. A value given as a limit tells only on which side of the number the result lay.

Test [1] deals with Luciferin 4-monooxygenase (Photinus pyralis, UniProt P08659). The test can be described thus: inhibition of purified Photinus pyralis luciferase – biochemical, luminescence, dose response (AID 1891).
Test [2] can be described thus: Luminescence Cell-Based Dose Confirmation HTS to Identify Inhibitors of Platelet Dense Granule Release. [Related pubchem assays: 1663 (Primary HTS), 1678 (Summary of Project)]. Format: functional.
Test [3] has as its target T1, Replicative DNA helicase DnaB (Mycobacterium tuberculosis, UniProt P9WMR3).
T1 sequence (P9WMR3 whole entry): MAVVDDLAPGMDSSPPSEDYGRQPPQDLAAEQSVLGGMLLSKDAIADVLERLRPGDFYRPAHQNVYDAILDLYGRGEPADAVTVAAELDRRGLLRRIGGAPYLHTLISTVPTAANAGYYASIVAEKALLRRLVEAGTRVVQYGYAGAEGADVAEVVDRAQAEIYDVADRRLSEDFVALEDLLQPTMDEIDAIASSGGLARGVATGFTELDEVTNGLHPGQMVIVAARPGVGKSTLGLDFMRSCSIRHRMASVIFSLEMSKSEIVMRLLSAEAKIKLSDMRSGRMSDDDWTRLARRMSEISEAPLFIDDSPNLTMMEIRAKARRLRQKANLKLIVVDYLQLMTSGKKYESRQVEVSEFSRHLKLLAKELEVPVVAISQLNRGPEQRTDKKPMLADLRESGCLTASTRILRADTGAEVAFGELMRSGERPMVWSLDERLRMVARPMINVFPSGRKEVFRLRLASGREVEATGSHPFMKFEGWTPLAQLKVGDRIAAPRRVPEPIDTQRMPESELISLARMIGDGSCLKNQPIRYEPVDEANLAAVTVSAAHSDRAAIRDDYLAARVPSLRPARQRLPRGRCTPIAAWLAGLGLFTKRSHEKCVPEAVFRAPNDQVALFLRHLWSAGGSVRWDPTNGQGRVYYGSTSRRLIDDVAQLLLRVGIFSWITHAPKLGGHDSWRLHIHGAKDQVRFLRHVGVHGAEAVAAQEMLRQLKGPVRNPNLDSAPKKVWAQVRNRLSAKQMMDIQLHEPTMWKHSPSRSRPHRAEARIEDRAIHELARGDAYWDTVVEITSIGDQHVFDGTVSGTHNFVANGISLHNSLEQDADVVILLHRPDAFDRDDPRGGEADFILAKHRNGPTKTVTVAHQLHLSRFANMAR
The test can be described thus: DnaB intein splicing inhibitors, dose response, biochemical, cell-free fluorescence (AID 449749). In kind it is functional.

In another test the target is T2, Protein RecA (Mycobacterium tuberculosis, UniProt P9WHJ3).
T2 sequence (P9WHJ3 whole entry): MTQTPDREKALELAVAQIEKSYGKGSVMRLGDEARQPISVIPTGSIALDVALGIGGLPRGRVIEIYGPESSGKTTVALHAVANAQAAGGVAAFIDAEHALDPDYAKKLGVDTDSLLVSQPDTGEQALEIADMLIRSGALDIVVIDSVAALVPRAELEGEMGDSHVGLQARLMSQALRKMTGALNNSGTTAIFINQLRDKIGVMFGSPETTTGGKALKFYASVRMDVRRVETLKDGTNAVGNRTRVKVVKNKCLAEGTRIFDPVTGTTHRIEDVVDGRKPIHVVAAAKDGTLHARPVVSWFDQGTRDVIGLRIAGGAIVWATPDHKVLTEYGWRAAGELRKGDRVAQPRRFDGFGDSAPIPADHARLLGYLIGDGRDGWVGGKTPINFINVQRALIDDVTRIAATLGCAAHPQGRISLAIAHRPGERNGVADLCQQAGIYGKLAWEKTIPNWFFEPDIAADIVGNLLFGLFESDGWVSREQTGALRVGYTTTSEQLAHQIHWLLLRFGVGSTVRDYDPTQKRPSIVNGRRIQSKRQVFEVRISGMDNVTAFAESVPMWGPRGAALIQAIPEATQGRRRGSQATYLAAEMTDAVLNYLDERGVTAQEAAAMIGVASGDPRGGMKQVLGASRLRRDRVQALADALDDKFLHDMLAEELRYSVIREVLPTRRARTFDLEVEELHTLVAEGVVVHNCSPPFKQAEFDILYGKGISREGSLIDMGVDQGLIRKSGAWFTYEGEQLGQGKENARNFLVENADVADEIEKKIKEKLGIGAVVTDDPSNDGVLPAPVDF
The test can be described thus: Fluorescence Cell-Free Homogeneous Dose Retest to Identify Inhibitors of RecA-Intein Splicing Activity. [Related pubchem assays (depositor defined):AID2097, AID2223, AID489010, AID492950]. Format: functional.

The target of test [4] is T3, Carboxy-terminal domain RNA polymerase II polypeptide A small phosphatase 1 (Homo sapiens, UniProt Q9GZU7).
T3 sequence (Q9GZU7 whole entry): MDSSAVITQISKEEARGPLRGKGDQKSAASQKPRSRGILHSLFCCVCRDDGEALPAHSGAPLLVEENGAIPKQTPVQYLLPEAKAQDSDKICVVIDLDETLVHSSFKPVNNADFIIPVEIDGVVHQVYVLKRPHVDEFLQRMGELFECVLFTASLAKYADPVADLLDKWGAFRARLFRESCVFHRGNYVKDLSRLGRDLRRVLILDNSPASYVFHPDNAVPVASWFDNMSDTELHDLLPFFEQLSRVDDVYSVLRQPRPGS
The test can be described thus: CTDSP1 inhibitors, concentration-response, biochemical, absorbance readout, ultra-high-throughput screen actives (AID 540297). Format: functional.

Test [5] in a line: Luminescence Cell-Based Dose Confirmation HTS to Identify Activators of 5'UTR Stem-Loop Driven Alpha-Synuclein mRNA Translation in H4 Neuroglioblastoma Cells. [Related pubchem assays: 1829 (Project Summary), 1814 (Primary HTS)]. In kind it is functional.
Test [6] can be described thus: Luminescence Cell-Based Dose Response HTS to Identify Activators of Luciferase Translation or Activity in H4 […] Cells. [Related pubchem assays: 1829 (Project Summary), 1814 (Primary HTS)]. Format: functional.
The test system of another test is H4. The test can be described thus: Luminescence Cell-Based Dose Response HTS to Identify Activators of 5'UTR Stem-Loop Driven Prion Protein mRNA Translation in H4 Neuroglioblastoma Cells. [Related pubchem assays: 1829 (Project Summary), 1814 (Primary HTS)]. Format: functional. To be noted: Homo sapiens.
The nature of test [7]: viability of uninfected HEp-2 cells – cell-based, HTS, cytotoxicity control for RSV inhibitor project, dose response (AID 2410). In kind it is functional. To be noted: human respiratory syncytial virus.
Another test has as its system H9c2. The test can be described thus: cells. In kind it is functional, cell-based. To be noted: Rattus norvegicus, H9c2, Myocardium.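 Further: confirmatory concentration-response retest of ultra-high-throughput screening hits for modulation of myocardial damage; cell death induced by hydrogen peroxide oxidative stress; compound pretreatment for 60 min then peroxide exposure for 2 h; potency is for protecting the cells against peroxide damage rather than for killing them.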
Test [8] can be described thus: Trypanosoma cruzi growth suppression in host cells – NIH3T3 host cells, beta-gal luminescence, confirmation (AID 2044).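 Further: intracellular parasites grown in NIH/3T3 mouse fibroblasts as host cells; luminescent beta-galactosidase reporter signal from transgenic T. cruzi replicating inside host cells; inhibitors lower the luminescence signal.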 In kind it is functional, cell-based.
Test [9] in a line: NIH3T3 cell viability loss – ATP luminescence, mouse fibroblasts, counter-screen, dose response (AID 2010).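 Further: cells exposed to compound for about 90 hours before reading.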 Format: functional, cell-based. (The purpose of a counterscreen is to sort out artefacts and off-target activity.)
The target in test [10] is FAD-linked sulfhydryl oxidase ALR (Homo sapiens, UniProt P55789). The test can be described thus: ALR-catalysed DTT oxidation blockers – biochemical, H2O2 detection, luminescence, cherry-pick, dose response (AID 493248).
A further test addresses Cytochrome P450 2D6 (Homo sapiens, UniProt P10635).

Chain of Luciferin 4-monooxygenase (P08659 whole entry): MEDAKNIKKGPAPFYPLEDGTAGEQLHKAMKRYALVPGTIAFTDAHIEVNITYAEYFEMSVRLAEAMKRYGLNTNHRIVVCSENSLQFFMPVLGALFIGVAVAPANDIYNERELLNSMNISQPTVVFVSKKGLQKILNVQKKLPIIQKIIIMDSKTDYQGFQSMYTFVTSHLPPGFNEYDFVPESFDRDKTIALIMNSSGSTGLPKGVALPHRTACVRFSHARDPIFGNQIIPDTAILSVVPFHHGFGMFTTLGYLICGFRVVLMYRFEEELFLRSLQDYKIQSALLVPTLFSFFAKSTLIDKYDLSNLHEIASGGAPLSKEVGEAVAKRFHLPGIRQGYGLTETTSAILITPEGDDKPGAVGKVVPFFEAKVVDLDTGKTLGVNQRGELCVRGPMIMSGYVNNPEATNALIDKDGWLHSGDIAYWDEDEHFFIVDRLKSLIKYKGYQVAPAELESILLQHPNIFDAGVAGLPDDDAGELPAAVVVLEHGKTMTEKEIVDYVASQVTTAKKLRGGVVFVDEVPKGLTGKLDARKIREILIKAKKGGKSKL
Chain of FAD-linked sulfhydryl oxidase ALR (P55789 whole entry): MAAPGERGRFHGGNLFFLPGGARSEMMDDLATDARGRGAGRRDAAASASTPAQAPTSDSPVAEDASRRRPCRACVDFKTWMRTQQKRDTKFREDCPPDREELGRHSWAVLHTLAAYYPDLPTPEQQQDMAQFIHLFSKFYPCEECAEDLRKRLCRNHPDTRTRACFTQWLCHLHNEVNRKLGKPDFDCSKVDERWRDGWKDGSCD
Chain of Cytochrome P450 2D6 (P10635 whole entry): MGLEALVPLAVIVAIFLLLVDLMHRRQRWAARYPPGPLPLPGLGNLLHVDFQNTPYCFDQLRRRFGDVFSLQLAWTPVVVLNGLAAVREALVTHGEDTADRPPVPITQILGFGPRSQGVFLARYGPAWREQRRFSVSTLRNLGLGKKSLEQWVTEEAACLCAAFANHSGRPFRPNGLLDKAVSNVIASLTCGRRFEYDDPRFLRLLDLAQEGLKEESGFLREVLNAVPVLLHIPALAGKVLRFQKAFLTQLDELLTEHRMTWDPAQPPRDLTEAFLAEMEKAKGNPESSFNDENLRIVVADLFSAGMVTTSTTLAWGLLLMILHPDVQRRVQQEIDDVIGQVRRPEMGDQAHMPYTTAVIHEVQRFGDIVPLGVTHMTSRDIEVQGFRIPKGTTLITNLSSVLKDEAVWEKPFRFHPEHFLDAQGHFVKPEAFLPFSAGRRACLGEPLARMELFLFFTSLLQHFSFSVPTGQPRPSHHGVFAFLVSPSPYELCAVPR

For the compound `N#CC1=C(N)C(C#N)(C#N)C(c2cccnc2)C2CN(C(=O)OCc3ccccc3)CC=C12` (configuration not stated), the concentration giving a half-maximal response (EC50) (commonly the concentration needed to bring the measured effect to its halfway point) in test [1] was > 112 µM (not active); in [2], 15.6 µM (active); at Protein RecA, 2.59 µM (active). In addition, in test [3], the AC50 (usually the concentration at which the activity in the assay is half-maximal) is > 380 µM (inactive).

`Cc1ccc(NC(=O)CN(C)C(=O)c2cc(-c3ccco3)nc3ccccc23)cc1`: the IC50 (in general, the point on the concentration scale where inhibition reaches its midpoint) in test [4] was 3.88 µM (active).

On to `CN1CCc2c(sc3nc(SCC(=O)NCc4ccco4)n(-c4ccccc4)c(=O)c23)C1`, for which the figures for the concentration for a half-maximal effect (EC50) (in test [5]; in test [6]; with H4) were 17.9 µM (active), 10.2 µM (active) and 25.5 µM (active), respectively.

Regarding `Cc1ccc(-n2c(C)nc3c(cnn3-c3ccc(C)c(C)c3)c2=O)cc1C`, the CC50 – broadly, the concentration at which the toxic effect on the cells reaches its halfway point – in test [7] was 48.5 µM (active). The concentration giving a half-maximal response (EC50) in test [5] was 10.2 µM (active); in test [6] it was 8.78 µM (active); in the test on H4 it was 43.9 µM (active).

As for `COc1ccc(OC)c([N+](=O)[O-])c1C(N)=O`, in test [4], the half-inhibitory concentration (IC50) is 3.49 µM (active).

Take `Cc1cc(CNC(=O)COC(=O)Cn2[nH]c(=O)c3ccccc3c2=O)cc(C)c1O`: the IC50 in the test on H9c2 is > 79 µM (inactive).

As to `COC(=O)c1cc(Cl)c(NC(=O)/C=C/c2ccc(OC)c(OC)c2)cc1OC`, the IC50 with H9c2 was 22.1 µM (active).

As for `Cc1ccc(S(=O)(=O)N2CCN(C(=O)COC(=O)CCOc3ccccc3C)CC2)c(C)c1`, in test [4], the half-maximal inhibitory concentration (IC50) is 10.7 µM (active).

Consider `CC(=O)Nc1ccc(N/C=C2\C(=O)NC(=O)N(Cc3ccco3)C2=O)cc1`, for which the IC50 in [4] is 9.73 µM (active).

Turning to `CCCn1c(C2CC(=O)N(c3cc(OC)ccc3OC)C2)nc2ccccc21` (configuration not stated), the EC50 in [1] and in [2] was > 112 µM (not active) in each case.

On to `O=C(COC(=O)c1ccc(Cl)c(S(=O)(=O)N2CCCCC2)c1)NCc1ccco1`, for which the IC50 in [4] is 13.8 µM (active).

With `O=C(N=Nc1c(O)n(C2OC(=O)c3ccccc32)c2ccccc12)c1ccco1` (configuration not stated), the EC50 in [5] is 11.5 µM (active); in [6], 11.4 µM (active); in the test with H4 it was 15 µM (active).

In the case of `COn1c(=O)c(=O)n(O)c2ccccc21`, the EC50 in test [1] and in [2] was > 112 µM (not active) each time.

Turning to `O=C(COc1ccccc1[N+](=O)[O-])Nc1ccc(NC(=O)c2cc3ccccc3o2)cc1`, the concentration giving a half-maximal response (EC50) (in test [5]; in [6]; in the test with H4) was > 120 µM (not active) in each case.

`CC1(C(=O)Nc2cccc(OC(F)(F)F)c2)Cc2c(-c3ccc(C(N)=O)cc3)ccnc2O1` (configuration not stated): in the test with H9c2, the IC50 was > 79 µM (inactive).

Take `Cc1cc2ccccn2c1C(=O)c1ccc(N/N=C/c2ccc(C(=O)O)cc2)c([N+](=O)[O-])c1`: in [4], the IC50 is 1.02 µM (active).

As to `CCCCNC(=O)Nc1ccc(Br)cn1`, the 50% effective concentration (EC50) in test [1] and in test [2] was > 112 µM (not active) throughout.

For the compound `COc1cc(C2NC(S)=NC(C)=C2C(=O)Nc2ccc(C)cc2)ccc1O` (configuration not stated), the EC50 is 15.1 µM (active) in [5], 22.4 µM (active) in [6] and 21.8 µM (active) in the test with H4.

`c1ccc(-c2ccc(-c3n[nH]cc3CN3CCC(N4CCSCC4)CC3)cc2)cc1`: the half-maximal effective concentration (EC50) in test [5] is 14.4 µM (active); in test [6] it was 15.8 µM (active); with H4 it was 12.4 µM (active).

On to `O=C(Nc1cccc(Cl)c1)c1ccc2ncsc2c1`, for which the EC50 in test [5] is 4.28 µM (active); in [6], 91.3 µM (active); in the test with H4, 34.6 µM (active).

For the compound `COc1ccccc1OP(=O)(Nc1cccnc1)Oc1ccccc1OC`, the IC50 in the test on H9c2 was > 79 µM (inactive).

Take `Cc1c2c(nc3ccccc13)CCC(C(C)(C)C)C2` (configuration not stated): the CC50 in test [7] is 44.4 µM (active). The EC50 in test [5] was 26.6 µM (active); in test [6] it was 4.26 µM (active); in the test with H4, 12.7 µM (active); in test [8], 3.67 µM (active); in [9], > 60 µM (not active).

On to `CC(=O)c1ccc(-c2cnc3c(NC=O)cc(-c4cccc(NS(C)(=O)=O)c4)cn23)cc1`, for which the IC50 in the test with H9c2 was > 79 µM (inactive).

Consider `Cc1nn(-c2ccccc2)c(Cl)c1C(=O)NNC(=O)c1ccccc1O`, for which the 50% inhibitory concentration (IC50) in the test with H9c2 is 13 µM (active).

Take `N#Cc1ccc(OCC(=O)Nc2nc(-c3ccccn3)cs2)cc1`: the IC50 with H9c2 is > 79 µM (inactive).

On to `CCc1nc(N2CCN(C(=O)c3ccco3)CC2)c2oc3ccccc3c2n1`, for which the EC50 in [1] and in test [2] was > 112 µM (not active) each time. Besides, in the test on H9c2, the IC50 is > 79 µM (inactive).

`COCC(C)n1c(C)cc(C(=O)COC(=O)c2c(NC(C)=O)sc(C)c2C)c1C` (configuration not stated): the 50% inhibitory concentration (IC50) in test [4] was 9.88 µM (active).

On to `CN(C)c1ccc(NC(=O)CN2CCN(S(=O)(=O)c3cc(Cl)ccc3Cl)CC2)cc1`, for which the EC50 in [1] and in [2] was > 112 µM (not active) throughout. The AC50 in test [10] was 2.31 µM (active).

With `CCn1c(CNC(=O)COc2ccc(C(C)C)cc2)nnc1SCC(=O)Nc1cc(F)ccc1C`, the 50% inhibitory concentration (IC50) in test [4] was 16.7 µM (active). The half-maximal activity concentration (AC50) on Cytochrome P450 2D6 is 22.4 µM (inconclusive).

With `Cc1ccc(C(=O)O)cc1-c1ccc(C=C2C(=O)c3ccccc3C2=O)o1`, the IC50 in test [4] is 13.7 µM (active).

Regarding `O=C(Nc1cc(=O)c2ccccc2o1)N1CCCCC1`, the IC50 with H9c2 was 22.8 µM (active).
